# Experiments:
# [1] = tested on: Venturia inaequalis; assay: In vivo fungicidal activity, Apple Scab (AS); conditions: rate 400 ppm, host plants sprayed then inoculated, rating, averaged
# Method: (§1) Test compounds are dissolved in acetone and diluted with deionized water containing about 0.05% TWEEN 20®, a polyoxyethylene sorbitan monolaurate surfactant manufactured by Atlas Chemical Industries, to give a concentration of 400 ppm. Subsequent dilutions are made with an 0.05% aqueous solution of TWEEN 20®.
# (§2) Host plants are sprayed with test solution, dried and inoculated with fungi. When disease symptom development is optimal, the plants are rated for disease control according to the rating scale shown below. Each test contains inoculated treated plants, inoculated untreated plants and a reference standard.
# (§3) When more than one test is run, the data are averaged.
# [2] = tested on: Plasmopara viticola; assay: In vivo fungicidal activity, Grape Downy Mildew (GDM); conditions: rate 400 ppm, rating, averaged
# Method: as §1, §2, §3
# [3] = tested on: Cercospora beticola; assay: In vivo fungicidal activity, Sugarbeet Cercospora (SBC); conditions: rate 400 ppm, rating, averaged
# Method: as §1, §2, §3
# [4] = tested on: Puccinia recondita, tritici; assay: In vivo fungicidal activity, Wheat Leaf Rust (WLR); conditions: rate 400 ppm, rating, averaged
# Method: as §1, §2, §3
# [5] = tested on: Erysiphe graminis, tritici; assay: In vivo fungicidal activity, Wheat Powdery Mildew (WPM); conditions: rate 400 ppm, rating, averaged
# Method: as §1, §2, §3
# [6] = tested on: Pythium ultimum; assay: In vitro fungicidal activity, mycelial growth inhibition on agar (Pyth); assay type: cell-based; conditions: Globisporangium ultimum, 48 h, two days
# Method: (§4) Test compounds are dissolved in acetone, diluted with sterile, deionized water and mixed with a partially cooled, autoclaved, chemically defined agar medium. This mixture is poured into several 100mm x 15mm sterile plastic plates and allowed to solidify. The surface of each plate is inoculated with a single disc of mycelium and agar cut with an 8mm diameter cork borer from actively growing cultures of assay fungi on a chemically defined agar medium. The plates are incubated at room temperature. Growth inhibition is determined when the mycelial growth on unamended control media has reached the edge of the petri plates. The time interval varies depending on the growth rate of the fungus; two days for Pythium ultimum (pyth) and Rhizoctonia solani (Rhiz) , five days for Botrytis cinerea (Betry) and 7-10 days for Pseudocercosporella herpotrichoides (Pseudo). Each colony diameter is measured and compared with the untreated control and the percent inhibition is calculated as follows: [formula] Each test includes a solvent blank consisting of the formulation without a test compound in addition to the untreated control.
# (§5) Assay fungi include the plant pathogens, Pythium ultimum (Pyth) and Rhizoctonia solani (Rhiz).
# (§6) When more than one test is run the data are averaged.
# [7] = tested on: Rhizoctonia solani; assay: In vitro fungicidal activity, mycelial growth inhibition on agar (Rhiz); assay type: cell-based; conditions: 48 h, two days
# Method: as §4, §5, §6
# [8] = tested on: Spodoptera eridania, 3rd instar larvae, southern armyworm; assay: Southern armyworm 3rd instar test, dipped limabean leaf; assay type: in vivo; conditions: 1000 ppm
# Summary of the method: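 Compound dissolved in 35% acetone/water at 10,000 ppm stock, diluted with water. Sieva limabean leaves dipped 3 s, dried, and exposed to ten 3rd instar larvae on damp filter paper. Mortality, reduced feeding and molting interference scored at 3 and 5 days on a rating scale.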
# [9] = tested on: Diabrotic undecimpunctata howardi, 3rd instar southern corn rootworm; assay: Southern corn rootworm soil test; assay type: in vivo; parameters: key: 0: no effect; 10-25% kill; 26-35% kill; 36-45% kill; 46-55% kill; 56-65% kill; 66-75% kill; 76-85% kill; 86-99% kill; 9: 100% kill; conditions: 50 (ppm as headed), mortality rating after 6 days
# Summary of the method: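 Compound applied in acetone to talc at 1.25 and 0.25 mg active ingredient per jar (about 50 and 10 kg/ha), dried, then mixed with millet seed and moist soil. Ten 3rd instar larvae added per jar; mortality counted at 6 days, with missing larvae scored dead. Results rated on a scale.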
smiles,measurement,setting,value
"N#CSCn1c(Br)c(Br)c(C#N)c1Br [Example 38, 1-[(cyanothio)methyl]-2,4,5-tribromopyrrole-3-carbonitrile]",Disease Control AS,[1],2.0
same,Disease Control GDM,[2],3.0
same,Disease Control SBC,[3],0 (0)
same,Disease Control WLR,[4],5.0
same,Disease Control WPM,[5],0 (0)
same,inhibition at 1 ppm,[6]; rate 1 ppm in agar,1.5%
same,inhibition at 10 ppm,[6]; rate 10 ppm in agar,4%
same,inhibition at 25 ppm,[6]; rate 25 ppm in agar,4.5%
same,inhibition at 1 ppm,[7]; rate 1 ppm in agar,1.5%
same,inhibition at 10 ppm,[7]; rate 10 ppm in agar,3.5%
same,inhibition at 25 ppm,[7]; rate 25 ppm in agar,5.8%
same,ARMYWORM Day 3,[8]; rating at 3 days,9 (100% kill)
same,ARMYWORM Day 5,[8]; rating at 5 days,9 (100% kill)
same,SOUTHERN CORN ROOTWORM,[9],0
